This is an account of results in patent US9447100B2, “Substituted pyrazolo[1,5-A] pyrimidines as calcium receptor modulating agents” (Takeda Pharmaceutical Company Limited, priority 2002, dated 2016).

Structures can show the parent of a compound that is named as a salt.

As for `CCC(CC)(NC(=O)c1cnn2c1NC(c1ccccc1)CC2C(F)(F)F)c1ccccc1` (stereo not drawn) [Example 396, N-(1-ethyl-1-phenylpropyl)-5-phenyl-7-(trifluoromethyl)-4,5,6,7-tetrahydropyrazolo[1,5-a]pyrimidine-3-carboxamide], the melting point (usually the temperature, or range, at which the solid turns liquid) lay in the range of 165 to 166 °C. Next, `CCC(CC)(NC(=O)c1cnn2c1NC(c1ccccc1)CC2(C)C)c1ccc(CCC(=O)OC)cc1` (stereo not drawn) [Example 748, methyl 3-(4-(1-(((7,7-dimethyl-5-phenyl-4,5,6,7-tetrahydropyrazolo[1,5-a]pyrimidin-3-yl)carbonyl)amino)-1-ethyl-propyl)phenyl)propanoate]: 147 to 148 °C. Under `O=C(NC1(C(=O)O)CCCCC1)c1cnn2c1N[C@H](c1ccccc1)C[C@@H]2C(F)(F)F` (stereo in doubt) [Example 369, 1-(((5-phenyl-7-(trifluoromethyl)-4,5,6,7-tetrahydropyrazolo[1,5-a]pyrimidin-3-yl)carbonyl)amino)cyclohexane carboxylic acid] stands 236 to 237 °C; under `CCOC(=O)CCc1ccc(C(CC)(CC)NC(=O)c2cnn3c2NC(c2ccccc2)CC3(C)C)cc1` (stereo not drawn) [Example 759, ethyl 3-(4-(1-(((7,7-dimethyl-5-phenyl-4,5,6,7-tetrahydropyrazolo[1,5-a]pyrimidin-3-yl)carbonyl)amino)-1-ethylpropyl)phenyl)propanoate], 135 to 136 °C; under `CCC(CC)(NC(=O)c1cnn2c1NC(c1ccccc1)CC2C(F)(F)F)c1cccc(Br)c1` (stereo not drawn) [Example 398, N-(1-(3-bromophenyl)-1-ethylpropyl)-5-phenyl-7-(trifluoromethyl)-4,5,6,7-tetrahydropyrazolo[1,5-a]pyrimidine-3-carboxamide], 167 to 168 °C. Under `Cc1nn2c(c1C(=O)O)NC(c1cccs1)CC2(C)C` (stereo not drawn) [Example 951, 2,7,7-trimethyl-5-(2-thienyl)-4,5,6,7-tetrahydropyrazolo[1,5-a]pyrimidine-3-carboxylic acid] stands 186 to 187 °C; under `CC1(C)CC(c2ccccc2)Nc2c(C(=O)N(Cc3ccccc3)Cc3ccccc3)cnn21` (stereo not drawn) [Example 408, N,N-dibenzyl-7,7-dimethyl-5-phenyl-4,5,6,7-tetrahydropyrazolo[1,5-a]pyrimidine-3-carboxamide], 206 to 207 °C. `CCC1(NC(=O)c2cnn3c2NC(c2ccccc2)CC3(C)C)CCCC1` (stereo not drawn) (as salt: HCl) [Example 588, N-(1-ethylcyclopentyl)-7,7-dimethyl-5-phenyl-4,5,6,7-tetrahydropyrazolo[1,5-a]pyrimidine-3-carboxamide] displayed a melting point of 140 to 142 °C. Next, `CCC(CC)(CC)NC(=O)c1cnn2c1NC(c1ccccc1)CC2(C)C` (stereo not drawn) [Example 616, N-(1,1-diethylpropyl)-7,7-dimethyl-5-phenyl-4,5,6,7-tetrahydropyrazolo[1,5-a]pyrimidine-3-carboxamide]: 93 to 94 °C; `CCC(CC)(NC(=O)c1cnn2c1NC(c1ccccc1OC)CC2(C)C)c1ccc(F)cc1` (stereo not drawn) [Example 600, N-(1-ethyl-1-(4-fluorophenyl)propyl)-5-(2-methoxyphenyl)-7,7-dimethyl-4,5,6,7-tetrahydropyrazolo[1,5-a]pyrimidine-3-carboxamide]: 206.2 to 206.3 °C. Under `CCC1(CC)C[C@@H](O)CN1C(=O)c1cnn2c1N[C@@H](c1ccccc1)CC2(C)C` [Example 1115, (3R)-1-(((5R)-7,7-dimethyl-5-phenyl-4,5,6,7-tetrahydropyrazolo[1,5-a]pyrimidin-3-yl)carbonyl)-5,5-diethyl-3-pyrrolidinol] stands 250 to 252 °C. Next, `COC(=O)C1(NC(=O)c2cnn3c2NC(c2ccccc2)CC3(C)C)CCCCC1` (stereo not drawn) [Example 624, methyl 1-(((7,7-dimethyl-5-phenyl-4,5,6,7-tetrahydropyrazolo[1,5-a]pyrimidin-3-yl)carbonyl)amino)cyclo-hexanecarboxylate]: 184 to 185 °C. Compound `Cc1nn2c(c1C(=O)O)NC(c1ccccc1F)CC2(C)C` (single isomer, unassigned; (+)) [Example 1024, (+)-5-(2-fluorophenyl)-2,7,7-trimethyl-4,5,6,7-tetrahydropyrazolo[1,5-a]pyrimidine-3-carboxylic acid] came in with a melting point of 150 to 151 °C. Compound `CCC(CC)(NC(=O)c1c(C)nn2c1NC(c1ccccc1)CC2(C)C)c1ccc(C(C)O)cc1` (stereo not drawn) [Example 978, N-(1-ethyl-1-(4-(1-hydroxyethyl)phenyl)propyl)-2,7,7-trimethyl-5-phenyl-4,5,6,7-tetrahydropyrazolo[1,5-a]pyrimidine-3-carboxamide] registered a melting point of 165 to 166 °C. Compound `O=C(O)c1cnn2c1NC(c1ccco1)CC2C(F)(F)F` (stereo not drawn) [Example 29, 5-(2-furyl)-7-(trifluoromethyl)-4,5,6,7-tetrahydropyrazolo[1,5-a]pyrimidine-3-carboxylic acid] returned a melting point of 156 to 157 °C. Next, `CCC(CC)(NC(=O)c1c(C)nn2c1N[C@@H](c1ccccc1)CC2(C)C)c1ccccc1F` (as salt: HCl) [Example 1063, (5R)-N-(1-ethyl-1-(2-fluorophenyl)propyl)-2,7,7-trimethyl-5-phenyl-4,5,6,7-tetrahydropyrazolo[1,5-a]pyrimidine-3-carboxamide]: 180 to 182 °C; `NC(=O)c1cnn2c1N[C@H](c1ccccc1)C[C@@H]2C(F)(F)F` (stereo in doubt) [Example 403, 5-phenyl-7-(trifluoromethyl)-4,5,6,7-tetrahydropyrazolo[1,5-a]pyrimidine-3-carboxamide]: 277 to 278 °C; `O=C(NC12CC3CC(CC(C3)C1)C2)c1cnn2c1NC(c1cccc(Cl)c1)CC2C(F)(F)F` (stereo not drawn) [Example 282, N-(1-adamantyl)-5-(3-chlorophenyl)-7-(trifluoromethyl)-4,5,6,7-tetrahydropyrazolo[1,5-a]pyrimidine-3-carboxamide]: 246 to 247 °C.

Compound `CCC(CC)(NC(=O)c1cnn2c1NC(c1ccccc1)CC2(CC)CC)c1ccc(C(F)(F)F)cc1` (stereo not drawn) [Example 185, 7,7-diethyl-N-(1-ethyl-1-(4-(trifluoromethyl)phenyl)propyl)-5-phenyl-4,5,6,7-tetrahydropyrazolo[1,5-a]pyrimidine-3-carboxamide] had a melting point of 174 to 175 °C. Under `CCC1(CC)C[C@H](OCc2ccccc2)CN1C(=O)c1cnn2c1N[C@H](c1ccccc1)CC2(C)C` [Example 1109, (5S)-3-(((4S)-4-(benzyloxy)-2,2-diethy-1-pyrrolidinyl)carbonyl)-7,7-dimethyl-5-phenyl-4,5,6,7-tetrahydropyrazolo[1,5-a]pyrimidine] stands 116 to 118 °C. As for `CCC(CC)(NC(=O)c1cnn2c1NC(c1ccc(C)cc1C)CC2(C)C)c1ccc(C)cc1` (stereo not drawn) (as salt: HCl) [Example 970, 5-(2,4-dimethylphenyl)-N-(1-ethyl-1-(4-methylphenyl)propyl)-7,7-dimethyl-4,5,6,7-tetrahydropyrazolo[1,5-a]pyrimidine-3-carboxamide], the melting point was 150 to 151 °C.

Compound `CCC(CC)(NC(=O)c1cnn2c1NC(c1ccccc1)CC2(C)C)c1ccc(C)c(C)c1` (stereo not drawn) (as salt: HCl) [Example 769, N-(1-(3,4-dimethylphenyl)-1-ethylpropyl)-7,7-dimethyl-5-phenyl-4,5,6,7-tetrahydropyrazolo[1,5-a]pyrimidine-3-carboxamide] came in with a melting point of 137 to 138 °C. `CC1(C)CC(c2ccccc2)Nc2c(C(=O)NC3(C(=O)O)CCCCC3)cnn21` (stereo not drawn) [Example 625, 1-(((7,7-dimethyl-5-phenyl-4,5,6,7-tetrahydropyrazolo[1,5-a]pyrimidin-3-yl)carbonyl)amino)cyclo-hexanecarboxylic acid] showed a melting point of 215 to 216 °C.

Turning to `CC(C)(Cc1ccc2ccccc2c1)NC(=O)c1cnn2c1NC(c1ccccc1)CC2C(F)(F)F` (stereo not drawn) [Example 272, N-(1,1-dimethyl-2-(2-naphthyl)ethyl)-5-phenyl-7-(trifluoromethyl)-4,5,6,7-tetrahydropyrazolo[1,5-a]pyrimidine-3-carboxamide], the melting point was in the range of 187 to 188 °C.

The compound `CCC(CC)(NC(=O)c1c(C)nn2c1NC(c1ccccc1C)CC2(C)C)c1ccc(C)cc1` (stereo not drawn) (as salt: HCl) [Example 782, N-(1-ethyl-1-(4-methylphenyl)propyl)-2,7,7-trimethyl-5-(2-methylphenyl)-4,5,6,7-tetrahydropyrazolo[1,5-a]pyrimidine-3-carboxamide] returned a melting point of 187 to 188 °C. Next, `CC1CC(c2ccccc2)Nc2c(C(=O)O)cnn21` (stereo not drawn) [Example 27, 7-methyl-5-phenyl-4,5,6,7-tetrahydropyrazolo[1,5-a]pyrimidine-3-carboxylic acid]: 165 to 167 °C; `CCC1(CC)C[C@H](O)CN1C(=O)c1cnn2c1N[C@@H](c1ccccc1)CC2(C)C` [Example 1117, (3S)-1-(((5R)-7,7-dimethyl-5-phenyl-4,5,6,7-tetrahydropyrazolo[1,5-a]pyrimidin-3-yl)carbonyl)-5,5-diethyl-3-pyrrolidinol]: 249 to 251 °C; `O=C(O)c1cnn2c1NC(c1ccccc1Cl)CC2C(F)(F)F` (stereo not drawn) [Example 32, 5-(2-chlorophenyl)-7-(trifluoromethyl)-4,5,6,7-tetrahydropyrazolo[1,5-a]pyrimidine-3-carboxylic acid]: 177 to 179 °C. Under `CCC(CC)(NC(=O)c1cnn2c1NC(c1ccccc1)CC21CCCC1)c1ccc(C(F)(F)F)cc1` (stereo not drawn) [Example 191, N-(1-ethyl-1-(4-(trifluoromethyl)phenyl)propyl)-5′-phenyl-5′,6′-dihydro-4′H-spiro[cyclopentane-1,7′-pyrazolo[1,5-a]pyrimidine]-3′-carboxamide] stands 205 to 207 °C.

On to `CCC(CC)(NC(=O)c1cnn2c1NC(c1ccccc1)CC2(C)C)c1ccc(C(=O)OC)cc1` (stereo not drawn) [Example 678, methyl 4-(1-(((7,7-dimethyl-5-phenyl-4,5,6,7-tetrahydropyrazolo[1,5-a]pyrimidin-3-yl)carbonyl)amino)-1-ethylpropyl)benzoate], for which the melting point lay within 180 to 181 °C.
